Laboratory results as given in patent US20070010671A1, “Novel quinazoline derivatives and methods of treatment related to the use thereof” (priority 2003, published 2007).

The molecules below were run against MCH receptor (Homo sapiens, UniProt Q99705) (assay: High throughput functional screening FLIPR/FDSS6000: inhibition of MCH-evoked intracellular Ca2+ changes). Details: class by percent of control at 10^-7 M or IC50.
Assay type: cell-based
Outline: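 Cells expressing a non-endogenous, constitutively active MCH receptor were loaded with 4 μM Fluo4-AM (with probenecid) for 1 hr at 37° C. Test compound was preincubated 3 min at 37° C before 50 nM MCH was added. The [Ca2+]i transient was read at Ex 488/Em 530 nm for 290 s.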

| Structure (SMILES) | class |
| --- | --- |
| CN(C)c1nc(N[C@H]2CC[C@@H](NC(=S)NCc3ccccc3Cl)CC2)nc2ccccc12 [compound 254, N-(2-chlorobenzyl)-N′-(cis-4-{[4-(dimethylamino)quinazolin-2-yl]amino}cyclohexyl)thiourea] | 1 (Class 1: The value of percent of control at 10^−7 M was less than 40% or the value of IC50 was less than 50 nM.) |
| Cc1ccc(NC(=S)N[C@H]2CC[C@@H](Nc3nc(N(C)C)c4ccccc4n3)CC2)c(Br)c1 [compound 252] | 1 (Class 1: The value of percent of control at 10^−7 M was less than 40% or the value of IC50 was less than 50 nM.) |
| CN(C)c1nc(N[C@H]2CC[C@@H](CNC(=O)NCc3ccccc3F)CC2)nc2ccccc12 [compound 499, N-[(cis-4-{[4-(dimethylamino)quinazolin-2-yl]amino}cyclohexyl)methyl]-N′-(2-fluorobenzyl)urea] | 2 (Class 2: The value of percent of control at 10^−7 M was from 40% to 60% or the value of IC50 was from 50 nM to 200 nM.) |
| CCCCOC(=O)c1ccccc1NC(=O)NC[C@H]1CC[C@@H](Nc2nc(N(C)C)c3ccccc3n2)CC1 [compound 750] | 3 (Class 3: The value of percent of control at 10^−7 M was more than 60% or the value of IC50 was more than 200 nM.) |
| CN(C)c1nc(N[C@H]2CC[C@@H](CNC(=S)NCc3ccccc3)CC2)nc2ccccc12 [compound 580] | 3 (Class 3: The value of percent of control at 10^−7 M was more than 60% or the value of IC50 was more than 200 nM.) |
| CN(C)c1nc(N[C@H]2CC[C@@H](NC(=S)Nc3ccc(Br)cc3C(F)(F)F)CC2)nc2ccccc12 [compound 268, N-[4-bromo-2-(trifluoromethyl)phenyl]-N′-(cis-4-{[4-(dimethylamino)quinazolin-2-yl]amino}cyclohexyl)thiourea] | 1 (Class 1: The value of percent of control at 10^−7 M was less than 40% or the value of IC50 was less than 50 nM.) |
| Cc1cc(C)c(NC(=S)NC[C@H]2CC[C@@H](Nc3nc(N(C)C)c4ccccc4n3)CC2)c(C)c1 [compound 672, N-[(cis-4-{[4-(dimethylamino)quinazolin-2-yl]amino}cyclohexyl)methyl]-N′-mesitylthiourea] | 2 (Class 2: The value of percent of control at 10^−7 M was from 40% to 60% or the value of IC50 was from 50 nM to 200 nM.) |
| CN(C)c1nc(N[C@H]2CC[C@@H](CNC(=S)NCCc3ccccc3)CC2)nc2ccccc12 [compound 627] | 3 (Class 3: The value of percent of control at 10^−7 M was more than 60% or the value of IC50 was more than 200 nM.) |
| CN(C)c1nc(N[C@H]2CC[C@@H](CNC(=S)Nc3cccc(Cl)c3)CC2)nc2ccccc12 [compound 587] | 3 (Class 3: The value of percent of control at 10^−7 M was more than 60% or the value of IC50 was more than 200 nM.) |
| CN(C)c1nc(N[C@H]2CC[C@@H](CNC(=O)Nc3ccc(Br)cc3Cl)CC2)nc2ccccc12 [compound 543] | 3 (Class 3: The value of percent of control at 10^−7 M was more than 60% or the value of IC50 was more than 200 nM.) |
| COc1ccc(NC(=S)NC[C@H]2CC[C@@H](Nc3nc(N(C)C)c4ccccc4n3)CC2)c(OC)c1 [compound 590] | 3 (Class 3: The value of percent of control at 10^−7 M was more than 60% or the value of IC50 was more than 200 nM.) |
| CN(C)c1nc(N[C@H]2CC[C@@H](NC(=O)Nc3cc(F)cc4c3OCOC4)CC2)nc2ccccc12 [compound 349, N-(cis-4-{[4-(dimethylamino)quinazolin-2-yl]amino}cyclohexyl)-N′-(6-fluoro-4H-1,3-benzodioxin-8-yl)urea] | 2 (Class 2: The value of percent of control at 10^−7 M was from 40% to 60% or the value of IC50 was from 50 nM to 200 nM.) |
| Cc1noc(C)c1NC(=O)NC[C@H]1CC[C@@H](Nc2nc(N(C)C)c3ccccc3n2)CC1 [compound 774, N-[(cis-4-{[4-(dimethylamino)quinazolin-2-yl]amino}cyclohexyl)methyl]-N′-(3,5-dimethylisoxazol-4-yl)urea] | 2 (Class 2: The value of percent of control at 10^−7 M was from 40% to 60% or the value of IC50 was from 50 nM to 200 nM.) |
| CCCCc1ccc(NC(=S)N[C@H]2CC[C@@H](Nc3nc(N(C)C)c4ccccc4n3)CC2)c(C)c1 [compound 385] | 1 (Class 1: The value of percent of control at 10^−7 M was less than 40% or the value of IC50 was less than 50 nM.) |
| CN(C)c1nc(N[C@H]2CC[C@@H](CNC(=S)NCCCCc3ccccc3)CC2)nc2ccccc12 [compound 795] | 3 (Class 3: The value of percent of control at 10^−7 M was more than 60% or the value of IC50 was more than 200 nM.) |
| Cc1ccc(CNC(=O)NC[C@H]2CC[C@@H](Nc3nc(N(C)C)c4ccccc4n3)CC2)cc1 [compound 559] | 3 (Class 3: The value of percent of control at 10^−7 M was more than 60% or the value of IC50 was more than 200 nM.) |

Same assay, conditions: class by percent of control at 10^-7 M or by IC50; read-out: class

| IC50 | Structure (SMILES) |
| --- | --- |
| > 200 nM | Cc1ccc(Cl)cc1NC(=O)N[C@H]1CC[C@@H](Nc2nc(N(C)C)c3ccccc3n2)CC1 [compound 836] |
| < 50 nM | COc1ccc(NC(=O)N[C@H]2CC[C@@H](Nc3nc(N(C)C)c4ccccc4n3)CC2)c(OC)c1 [compound 79] |
| > 200 nM | CN(C)c1nc(N[C@H]2CC[C@@H](NC(=O)Nc3cccc(Cl)c3Cl)CC2)nc2ccccc12 [compound 24] |
| 50 to 200 nM | Cc1ccc(NC(=O)N[C@H]2CC[C@@H](Nc3nc(N(C)C)c4ccccc4n3)CC2)cc1 [compound 57, N-(cis-4-{[4-(dimethylamino)quinazolin-2-yl]amino}cyclohexyl)-N′-(4-methylphenyl)urea] |
| > 200 nM | Cc1ccc(NC(=O)N[C@H]2CC[C@@H](Nc3nc(N(C)C)c4ccccc4n3)CC2)c(C)c1 [compound 80] |
| > 200 nM | CN(C)c1nc(N[C@H]2CC[C@@H](CNC(=S)NCCN3CCCCC3)CC2)nc2ccccc12 [compound 813] |

Same assay, conditions: class by percent of control at 10^−7 M or by IC50; read-out: class

| IC50 | Structure (SMILES) |
| --- | --- |
| < 50 nM | COc1ccc([C@H](C)NC(=O)[C@H]2CC[C@@H](Nc3nc(N(C)C)c4ccccc4n3)CC2)cc1 [Example 1190, cis-4-{[4-(dimethylamino)quinazolin-2-yl]amino}-N-[(1S)-1-(4-methoxyphenyl)ethyl]cyclohexanecarboxamide] |
| > 200 nM | CN(C)c1nc(N[C@H]2CC[C@@H](NC(=O)C(O)c3cccc(F)c3F)CC2)nc2ccccc12 (relative stereo) [Example 1109, 2-(2,3-difluorophenyl)-N-(cis-4-{[4-(dimethylamino)quinazolin-2-yl]amino}cyclohexyl)-2-hydroxyacetamide] |
| < 50 nM | C[C@@H](NC(=O)[C@H]1CC[C@@H](Nc2nc(N(C)C)c3ccccc3n2)CC1)c1ccccc1 [Example 1189, cis-4-{[4-(dimethylamino)quinazolin-2-yl]amino}-N-[(1R)-1-phenylethyl]cyclohexanecarboxamide] |
| 50 to 200 nM | COc1cc(OC)cc(Oc2ccc(C(=O)N[C@H]3CC[C@@H](Nc4nc(N(C)C)c5ccccc5n4)CC3)cn2)c1 [Example 1071, 6-(3,5-dimethoxyphenoxy)-N-(cis-4-{[4-(dimethylamino)quinazolin-2-yl]amino}cyclohexyl)nicotinamide] |
| < 50 nM | CN(C)c1nc(N[C@H]2CC[C@@H](NC(=O)COc3ccc(Cl)c(Cl)c3)CC2)nc2ccccc12 [Example 1075, 2-(3,4-dichlorophenoxy)-N-(cis-4-{[4-(dimethylamino)quinazolin-2-yl]amino}cyclohexyl)acetamide] |
